From patent US20260144784A1, “COMPOSITION FOR PREVENTING OR TREATING MELAS SYNDROME, CONTAINING ISOPQUINOLINE DERIVATIVE AS ACTIVE INGREDIENT” (ALTMEDICAL CO., LTD., priority 2022, published 2026)

Tests used:
[1] = test system: mitochondrial membrane potential; assay: mitochondrial membrane potential, TMRM assay; format: cell-based; details: CD1-012 10 μM or 15 μM, CCCP 10 μM, 24 hours
Experimental: (§1) It was confirmed whether the isoquinoline derivative according to the present invention induces mitochondrial dysfunction, similar to CCCP. To this end, the CD1-012 (10 μM or 15 μM) and CCCP (10 μM) were treated for 24 hours, and the mitochondrial membrane potential and mitochondrial reactive oxygen species (ROS) levels in each sample were analyzed. Mitochondrial membrane potential was analyzed using the TMRM (tetramethylrhodamine methyl ester) assay, and mitochondrial ROS levels were analyzed using the MitoSOX assay.

[2] = test system: PINK1 knockdown cell line (shPINK1); assay: mitophagy activity by FACS in PINK1 knockdown BEAS-2B cell line; format: cell-based, human; details: CCCP 10 μM, CD1-012 15 μM, 18 hours
Experimental: In this example, it was confirmed whether the mitophagy activation function of the isoquinoline derivative according to the present invention is dependent on the PINK1-Parkin pathway. To this end, after a BEAS-2B cell line, in which PINK1 was knocked down using short hairpin RNA (shRNA), was treated with CCCP (10 μM) of Comparative Example 1 or CD1-012 (15 μM) for 18 hours, the mitophagy activity of each sample was analyzed using flow cytometry (FACS).

[3] = test system: mitochondrial reactive oxygen species (ROS); assay: mitochondrial reactive oxygen species, MitoSOX assay; format: cell-based; details: CD1-012 10 μM or 15 μM, CCCP 10 μM, 24 hours
Experimental: as §1

143B MELAS cell line [4] = assay: ATP synthesis in 143B MELAS cell line; format: cell-based; details: 40 μM for 24 hours, measured 2 days later
Experimental: As confirmed through the previous examples, the compound according to the present invention can promote mitophagy in MELAS syndrome cells, and in the present example, it was confirmed whether the compound can improve mitochondrial dysfunction in MELAS syndrome cells. For this purpose, CD1-012 (40 μM) was treated in the 143B MELAS cell line for 24 hours, and ATP synthesis was measured 2 days later.

143B MELAS cell line [5] = assay: mitophagy activity, mt-Keima in 143B MELAS cell line (FACS, confocal microscope); format: cell-based; details: 143B MELAS mt-Keima
Text: (§2) In the previous example, it was confirmed that mitochondrial dysfunction occurs in the MELAS syndrome cell line, and in the present example, it was confirmed whether the compound according to the present invention can promote mitophagy in the MELAS syndrome cell line. In order to verify the mitophagy activity-promoting effect of the CD1-012 compound in the 143B MELAS cell line, a mitophagy quantification method using the mt-Keima fluorescent protein, which enables quantitative measurement of mitophagy activity in live cells, was used (2015 Mol Cell, 60 (4): 685-696.doi: 10.1016/j.molcel.2015.10.009:2018 J Vis Exp. (138): 58099 doi: 10.3791/58099.). Specifically, mt-Keima fluorescent protein was expressed in the 143B MELAS cell line, and after treatment with CD1-012 at various concentrations, mitophagy activity was measured using a mitophagy activity measurement method using a fluorescence-activated cell sorter (FACS) or a confocal microscope. […] Additionally, as a result of investigating the reduction of mitochondrial proteins associated with increased mitophagy activity by Western blot, it was confirmed that the levels of SDHA and COX4 proteins decreased when treated with CD1-012 at concentrations of 10 μM or higher (FIG. 9C).

BEAS-2B cell line [6] = assay: mitophagy activity, mt-Keima fluorescent protein in BEAS-2B cells (FACS, confocal microscope, mito-YFP); format: cell-based, human; details: BEAS-2B mt-Keima
Experimental: To analyze the mitophagy-promoting activity effect of the CD1-012 synthesized in the Example 1, the BEAS-2B cell line, which is a human normal lung cell line, was induced to express the mt-Keima fluorescent protein. Following this, the CD1-012 (15 μM) and the compound of Comparative Example 1, CCCP (10 μM), were treated for 24 hours. After the treatment, the mitophagy activity of each sample was measured, and the results were represented in FIGS. 1A to 1C.
Specifically, FIG. 1A represents the analysis results using flow cytometry (FACS) (treatment of CD1-012 at 15 μM for 24 hours), FIG. 1B represents the analysis results using a confocal microscope (treatment of CD1-012 at 15 μM for 18 hours), and FIG. 1C represents the measurement results of the quantitative changes in the mitochondria using a fluorescent protein, mito-YFP, which includes a targeting sequence to transport protein to the mitochondria (treatment of CD1-012 at 20 μM for 24 hours).
It was confirmed whether CD1-012 synthesized in Example 1 promotes mitophagy activity in a concentration- and time-dependent manner. To this end, the CD1-012 was treated at various concentrations or at a fixed concentration (15 μM) for different treatment durations in the BEAS-2B cell line expressing mt-Keima, and mitophagy activity was measured using a flow cytometer.
(§3) It was confirmed whether CD1-012 synthesized in Example 1 specifically increases only mitophagy activity. To this end, the BEAS-2B cell line expressing mt-Keima was treated with CD1-012 (15 μM) or Comparative Example 1 (CCCP, 10 μM) for 18 hours, and mitophagy activity was analyzed using a confocal microscope. Additionally, to measure autophagy activity, the BEAS-2B cell line expressing Keima fluorescent protein was incubated in Hanks' balanced salt solution (HBSS) for 3 hours to induce a starvation condition (starv.), and the results were compared with samples treated with CD1-012 (15 μM) for 18 hours using a confocal microscope.
To this end, the human normal lung cell line BEAS-2B, expressing mt-Keima fluorescent protein, was treated with CD1-012, Comparative Example 2 (palmatine), or Comparative Example 3 (berberine) at various concentrations, and the mitophagy-inducing activity of each sample was compared.

143B MELAS cell line [7] = assay: mitochondrial protein levels by Western blot in MELAS cell line; format: cell-based; details: FIG. 9C
Text: as §2

HeLa-Parkin cell line = assay: mitophagy activity by flow cytometry in HeLa-Parkin cells; format: cell-based; details: FACS
Experimental: (§4) It was confirmed whether CD1-012 synthesized in Example 1 increases mitophagy activity in various cell lines. To this end, CD1-012 and Comparative Example 1 (CCCP) were treated in the SH-SYSY cell line, a human neuroblastoma cell line expressing mt-Keima fluorescent protein, and in the HeLa-Parkin cell line, a HeLa cervical cancer cell line expressing Parkin (E3 ligase). Following this treatment, the mitophagy activity of each sample was analyzed using flow cytometry (FACS), and the results are shown in FIGS. 2A to 2B.

[8] = test system: MELAS syndrome patient-derived cells; assay: ATP levels in MELAS syndrome patient-derived cells; format: cell-based, human; details: 40 μM for 24 hours, measured 2 days later, untreated 76%
Experimental: In this example, it was confirmed whether the compound according to the present invention can improve mitochondrial dysfunction in MELAS syndrome patient-derived cells. CD1-012 was treated in MELAS syndrome patient-derived cells at a concentration of 40 μM for 24 hours, and ATP levels were measured 2 days later. As a result, it was confirmed that the ATP levels in MELAS syndrome patient-derived cells, which had decreased to 76% of those in normal cells, were restored to 95% of normal levels by CD1-012 treatment (FIG. 13).

[9] = test system: MELAS syndrome patient-derived cells; assay: mitochondrial protein levels (SDHA, SDHB) by Western blot in MELAS syndrome patient-derived cells; format: cell-based, human; details: 24 hours
Experimental: As confirmed in the previous example, mitochondrial dysfunction is observed in MELAS syndrome patient-derived cells, and in the present example, it was confirmed whether the compound according to the present invention can promote mitophagy activity in MELAS syndrome patient-derived cells. CD1-012 was treated in MELAS syndrome patient-derived cells at concentrations of 20 μM or 40 μM for 24 hours, and the levels of mitochondrial proteins SDHA and SDHB were analyzed by Western blot.

BEAS-2B cell line [10] = assay: autophagy activity, Keima fluorescent protein in BEAS-2B cells (confocal microscope); format: cell-based, human; details: BEAS-2B Keima; 15 μM 18 hours, FIG. 4B
Experimental: as §3

SH-SYSY cell line = assay: mitophagy activity by flow cytometry in SH-SY5Y cells expressing mt-Keima; format: cell-based, human; details: FACS
Experimental: as §4

N#CC(C#N)=NNc1cccc(Cl)c1 [CCCP, Carbonyl Cyanide 3-Chlorophenylhydrazone, reference compound]
mitochondrial membrane potential [1]: significantly reduced
mitophagy activation in PINK1 knockdown cell line (shPINK1) compared to control cell line (shNT) [2]: significantly decreased
mitochondrial ROS levels [3]: significantly increased

Oc1cc2c(cc1O)-c1cc3ccc(O)c(O)c3c[n+]1CC2 [CD1-012, 2,3,9,10-Tetrahydroxy-5,6-dihydroisoquinolino [3,2-a]isoquinolin-7-iumbromide]
ATP level relative to the normal cell line levels (143B MELAS cell line [4]): 90%
increase in ATP levels versus untreated MELAS cells (143B MELAS cell line [4]): 131%
ATP levels (143B MELAS cell line [4]; untreated MELAS cells 39.6 nM): 51.9 nM
concentration at which mitophagy activity in the MELAS cell line significantly increased (flow cytometry) (143B MELAS cell line [5]; FIG. 9A): ≥ 10 µM
mitophagy activity by confocal microscopy analysis (143B MELAS cell line [5]; 20 μM and 40 μM, FIG. 9B): increase in mitophagy activity
mitophagy activity compared with CCCP-treated sample (FIG. 1A) (BEAS-2B cell line [6]; FACS, 15 μM 24 hours vs CCCP 10 μM): increased as significantly as
concentration at which mitophagy activity reached a level comparable to the maximum of palmatine and berberine (BEAS-2B cell line [6]; FIG. 5): 10 UM
mitophagy-inducing activity relative to berberine (BEAS-2B cell line [6]; FIG. 5): approximately 8 times
mitophagy-inducing activity relative to palmatine (BEAS-2B cell line [6]; FIG. 5): approximately 40 times
concentration at which mitophagy activity began to significantly increase compared to untreated control (BEAS-2B cell line [6]; flow cytometer, FIG. 3A): ≥ 7.5 µM
mitophagy-promoting effect compared with CCCP (confocal microscope) (BEAS-2B cell line [6]; 15 μM 18 hours vs CCCP 10 μM, FIG. 4A): mitophagy-promoting effects similar to those observed in the CCCP-treated sample
mitophagy activity compared to the untreated control group (Con) (BEAS-2B cell line [6]; 15 μM 24 hours (FACS), 15 μM 18 hours (confocal), 20 μM 24 hours (mito-YFP)): significant increase in mitophagy activity
treatment time after which mitophagy activity began to significantly increase (BEAS-2B cell line [6]; 15 μM, FIG. 3B): 3 h
treatment time at which mitophagy activity reached its maximum level (BEAS-2B cell line [6]; 15 μM, FIG. 3B): 18 h
concentration dependence of mitophagy activity (BEAS-2B cell line [6]; up to the maximum treatment concentration of 17.5 μM): continued to increase in a concentration-dependent manner
mitochondrial membrane potential [1]: no decrease in mitochondrial membrane potential was observed
concentration at which the levels of SDHA and COX4 proteins decreased (143B MELAS cell line [7]): ≥ 10 µM
mitophagy activity compared to the control group (Con) (HeLa-Parkin cell line): significantly increased mitophagy activity
ATP levels relative to normal cells [8]: 95%
mitochondrial protein levels (SDHA, SDHB) compared to the untreated control group ([9]; 20 μM): decrease in mitochondrial protein levels
mitochondrial protein expression (SDHA, SDHB) compared to the untreated control group ([9]; 40 μM): more pronounced decrease in mitochondrial protein expression
autophagy activity compared to the untreated control group (BEAS-2B cell line [10]): no significant difference in autophagy activity
mitophagy activity compared to the control group (Con) (SH-SYSY cell line): significantly increased mitophagy activity
mitophagy activation in PINK1 knockdown cell line (shPINK1) compared to control cell line (shNT) [2]: did not show a significant difference
mitochondrial ROS levels [3]: no increase in mitochondrial ROS was detected

COc1ccc2cc3[n+](cc2c1OC)CCc1cc2c(cc1-3)OCO2 [berberine, Berberine, reference compound]
concentration at which mitophagy activity reached its maximum (BEAS-2B cell line [6]; FIG. 5): 80 µM

COc1cc2c(cc1OC)-c1cc3ccc(OC)c(OC)c3c[n+]1CC2 [palmatine, Palmatine, reference compound]
concentration at which mitophagy activity reached its maximum (BEAS-2B cell line [6]; FIG. 5): 400 µM
